Results from patent US7365174B2, “Azalide and azalactam derivatives and method for producing the same” (Meiji Seika Kaisha, Ltd., priority 2003, dated 2008).
Converted amounts (≈) assume the structure as drawn.

How the values were obtained:
Experiment in all cases: Antibacterial activity test (agar dilution MIC)
Format in all cases: cell-based
[1] = tested on: Moraxella catarrhalis W-0506; details: W0506; test bacterium F = Moraxella catarrhalis W-0506; blood agar medium, 37° C., about 20 hours; read-out: Minimum inhibitory concentration (MIC)
Description: (§1) In vitro antibacterial activities of the compounds of Examples 13, 28, 35, 43, 53 to 55, 64, 70, 84, 90, 94, 95, 108, 128, and 129 were measured as follows by referring to the standard method of the Japanese Society of Chemotherapy (Chemotherapy, Vol. 29, pp. 76-79, 1981). The antibacterial activity of midecamycin (MDM) was similarly measured for comparison.
(§2) Using each solution of the test substance prepared in methanol at a concentration of […], 2-fold serial dilutions were prepared by using methanol. Each of the prepared solutions of the test substances was put into a petri dish in a volume of 200 μl, added with 10 ml of agar medium for sensitivity measurement added with 5% horse sterile defibrinated blood, 15 μg/ml of β-nicotinamide-adenine dinucleotide, and 2.5 μg/ml of Hemin, and mixed for dilution to prepare an agar plate containing a test substance. A predetermined volume of a liquid medium for sensitivity measurement, prepared so as to contain a given number of test bactera, was inoculated on the agar plate containing a test substance by using a micro planter (Sakuma Seisakusho), and after the inoculation, the bacteria were cultured at 37° C. for about 20 hours. After the culture, presence or absence of growth of the test bacteria on the plate was observed by visual inspection, and the minimum concentration at which growth was not observed was determined as the minimum inhibitory concentration (MIC) of the test sustance.

[2] = tested on: Staphylococcus aureus 209P JC-1; details: test bacterium A = Staphylococcus aureus 209P JC-1; blood agar medium, 37° C., about 20 hours; read-out: Minimum inhibitory concentration (MIC)
Description: as §1, §2

[3] = tested on: Streptococcus pyogenes Cook; details: test bacterium E = Streptococcus pyogenes Cook; blood agar medium, 37° C., about 20 hours; read-out: Minimum inhibitory concentration (MIC)
Description: as §1, §2

[4] = tested on: Streptococcus pneumoniae DP1 TypeI; details: DP1TYPEI; test bacterium B = Streptococcus pneumoniae DP1 TypeI; blood agar medium, 37° C., about 20 hours; read-out: Minimum inhibitory concentration (MIC)
Description: as §1, §2

[5] = tested on: Streptococcus pneumoniae IP692; details: test bacterium C = Streptococcus pneumoniae IP692; blood agar medium, 37° C., about 20 hours; read-out: Minimum inhibitory concentration (MIC)
Description: as §1, §2

[6] = tested on: Streptococcus pneumoniae TH-662; details: TH662; test bacterium D = Streptococcus pneumoniae TH-662; blood agar medium, 37° C., about 20 hours; read-out: Minimum inhibitory concentration (MIC)
Description: as §1, §2

[7] = tested on: Haemophilus influenzae 9334; details: test bacterium G = Haemophilus influenzae 9334; blood agar medium, 37° C., about 20 hours; read-out: Minimum inhibitory concentration (MIC)
Description: as §1, §2

Compound	MIC [1]	MIC [2]	MIC [3]	MIC [4]	MIC [5]	MIC [6]	MIC [7]
CCC(=O)O[C@@H]1CC(=O)OCCC(/C=C/Cc2ccnc3ccccc23)CN(C)C[C@H](O)[C@H](C)C[C@H](CC=O)[C@H](O[C@@H]2OC(C)[C@@H](O[C@H]3CC(C)(O)[C@@H](OC(=O)CC)C(C)O3)C(N(C)C)C2O)[C@H]1OC (single isomer, unassigned) [Example 54]	1 µg/mL (≈ 1.01 µM)	0.13 µg/mL (≈ 0.132 µM)	0.03 µg/mL (≈ 0.0304 µM)	0.015 µg/mL (≈ 0.0152 µM)	0.03 µg/mL (≈ 0.0304 µM)	8 µg/mL (≈ 8.11 µM)	–
CCC(=O)OC1C(C)O[C@@H](O[C@@H]2C(C)O[C@@H](O[C@H]3[C@@H](CC=O)C[C@@H](C)[C@@H](O)CN(CCCCc4ccccc4)CCCNC(=O)C[C@@H](OC(=O)CC)[C@@H]3OC)C(O)C2N(C)C)CC1(C)OC(C)=O (stereo partly drawn) [Example 13]	0.25 µg/mL (≈ 0.259 µM)	0.25 µg/mL (≈ 0.259 µM)	0.25 µg/mL (≈ 0.259 µM)	0.13 µg/mL (≈ 0.135 µM)	0.25 µg/mL (≈ 0.259 µM)	16 µg/mL (≈ 16.6 µM)	0.5 µg/mL (≈ 0.519 µM)
CCC(=O)OC1C(C)O[C@@H](O[C@@H]2C(C)O[C@@H](O[C@H]3[C@@H](CC=O)C[C@@H](C)[C@@H](O)CN(C)CCC(/C=C/Cc4ccnc5ccccc45)NC(=O)C[C@@H](OC(=O)CC)[C@@H]3OC)C(O)C2N(C)C)CC1(C)O (stereo partly drawn) [Example 28]	2 µg/mL (≈ 2.06 µM)	0.5 µg/mL (≈ 0.515 µM)	0.25 µg/mL (≈ 0.257 µM)	0.03 µg/mL (≈ 0.0309 µM)	0.13 µg/mL (≈ 0.134 µM)	8 µg/mL (≈ 8.24 µM)	1 µg/mL (≈ 1.03 µM)
CCC(=O)OC1C(C)O[C@@H](O[C@@H]2C(C)O[C@@H](O[C@H]3[C@@H](CC=O)C[C@@H](C)[C@@H](O)CN(C)CCC(CCCc4cnc5ccccc5c4)NC(=O)C[C@@H](OC(=O)CC)[C@@H]3OC)C(O)C2N(C)C)CC1(C)O (stereo partly drawn) [Example 35]	4 µg/mL (≈ 4.11 µM)	1 µg/mL (≈ 1.03 µM)	0.25 µg/mL (≈ 0.257 µM)	0.03 µg/mL (≈ 0.0308 µM)	0.06 µg/mL (≈ 0.0617 µM)	8 µg/mL (≈ 8.22 µM)	2 µg/mL (≈ 2.06 µM)
CCC(=O)O[C@@H]1CC(=O)O[C@H](C)CCCN(CCCCc2ccccc2)C[C@H](O)[C@H](C)C[C@H](CC=O)[C@H](O[C@@H]2OC(C)[C@@H](O[C@H]3CC(C)(OC(C)=O)[C@@H](OC(=O)CC)C(C)O3)C(N(C)C)C2O)[C@H]1OC (stereo partly drawn) [Example 43]	0.5 µg/mL (≈ 0.503 µM)	0.25 µg/mL (≈ 0.252 µM)	0.13 µg/mL (≈ 0.131 µM)	0.06 µg/mL (≈ 0.0604 µM)	0.06 µg/mL (≈ 0.0604 µM)	1 µg/mL (≈ 1.01 µM)	0.5 µg/mL (≈ 0.503 µM)
CCC(=O)O[C@@H]1CC(=O)O[C@@H](C/C=C/c2cnc3ccccc3c2)CCCN(C)C[C@H](O)[C@H](C)C[C@H](CC=O)[C@H](O[C@@H]2OC(C)[C@@H](O[C@H]3CC(C)(O)[C@@H](OC(=O)CC)C(C)O3)C(N(C)C)C2O)[C@H]1OC (stereo partly drawn) [Example 53]	1 µg/mL (≈ 1.01 µM)	0.5 µg/mL (≈ 0.507 µM)	0.06 µg/mL (≈ 0.0608 µM)	0.015 µg/mL (≈ 0.0152 µM)	0.03 µg/mL (≈ 0.0304 µM)	8 µg/mL (≈ 8.11 µM)	2 µg/mL (≈ 2.03 µM)
CCC(=O)O[C@@H]1CC(=O)OCCC(/C=C/Cc2ccnc3ccccc23)CN(C)C[C@H](O)[C@H](C)C[C@H](CC=O)[C@H](O[C@@H]2OC(C)[C@@H](O)C(N(C)C)C2O)[C@H]1OC (stereo partly drawn) [Example 55]	0.25 µg/mL (≈ 0.318 µM)	0.5 µg/mL (≈ 0.636 µM)	0.06 µg/mL (≈ 0.0763 µM)	0.03 µg/mL (≈ 0.0382 µM)	0.03 µg/mL (≈ 0.0382 µM)	> 128 µg/mL	–
CCC(=O)O[C@@H]1CC(=O)NCCCCN(CCCCc2ccccc2)C[C@H](O)[C@H](C)C[C@H](CC=O)[C@H](O[C@@H]2OC(C)[C@@H](O[C@H]3CC(C)(OC(C)=O)[C@@H](OC(=O)CC)C(C)O3)C(N(C)C)C2O)[C@H]1OC (stereo partly drawn) [Example 64]	0.25 µg/mL (≈ 0.256 µM)	0.25 µg/mL (≈ 0.256 µM)	0.06 µg/mL (≈ 0.0613 µM)	0.13 µg/mL (≈ 0.133 µM)	0.25 µg/mL (≈ 0.256 µM)	8 µg/mL (≈ 8.18 µM)	1 µg/mL (≈ 1.02 µM)
